Assays:
[1] = biological target: Cell division cycle 7-related protein kinase (Homo sapiens, UniProt O00311); assay: Inhibition of Cdc7-mediated phosphorylation of Mcm2
A2780 = assay: Antiproliferative activity against human A2780 cells after 72 hrs by firefly luciferase assay; assay type: functional, cell-based; settings: A2780, 72 h
[2] = biological target: cAMP-dependent protein kinase catalytic subunit alpha (Homo sapiens, UniProt P17612); assay: Inhibition of PKAalpha
CDK9/cyclin T1 = CDK9/cyclin T1 (Homo sapiens, UniProt P50750); assay: Inhibition of Cdk9/cyclinT; assay type: protein-complex assay
CDK9/cyclin T1, sequence (O60563 whole entry): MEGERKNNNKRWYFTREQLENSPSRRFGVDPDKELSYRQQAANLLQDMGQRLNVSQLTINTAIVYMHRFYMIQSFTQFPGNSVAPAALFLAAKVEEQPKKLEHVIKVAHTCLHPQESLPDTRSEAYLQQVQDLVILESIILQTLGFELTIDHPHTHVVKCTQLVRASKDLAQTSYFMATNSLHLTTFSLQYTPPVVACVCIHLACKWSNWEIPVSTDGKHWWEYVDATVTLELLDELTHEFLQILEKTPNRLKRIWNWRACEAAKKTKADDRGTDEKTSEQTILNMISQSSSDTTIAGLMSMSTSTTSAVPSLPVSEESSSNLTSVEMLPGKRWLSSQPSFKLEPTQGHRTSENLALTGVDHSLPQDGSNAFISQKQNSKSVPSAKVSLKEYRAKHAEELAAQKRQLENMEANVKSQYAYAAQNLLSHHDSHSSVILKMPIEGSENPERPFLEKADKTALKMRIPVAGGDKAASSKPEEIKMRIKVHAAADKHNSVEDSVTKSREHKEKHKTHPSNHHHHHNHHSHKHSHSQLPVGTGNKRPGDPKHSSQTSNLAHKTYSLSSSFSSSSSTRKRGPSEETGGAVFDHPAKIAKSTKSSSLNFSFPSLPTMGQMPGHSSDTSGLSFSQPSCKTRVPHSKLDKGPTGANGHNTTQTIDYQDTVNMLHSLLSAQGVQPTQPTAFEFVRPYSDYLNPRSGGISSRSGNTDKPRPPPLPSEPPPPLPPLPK
CDK9/cyclin T1, sequence (P50750 whole entry): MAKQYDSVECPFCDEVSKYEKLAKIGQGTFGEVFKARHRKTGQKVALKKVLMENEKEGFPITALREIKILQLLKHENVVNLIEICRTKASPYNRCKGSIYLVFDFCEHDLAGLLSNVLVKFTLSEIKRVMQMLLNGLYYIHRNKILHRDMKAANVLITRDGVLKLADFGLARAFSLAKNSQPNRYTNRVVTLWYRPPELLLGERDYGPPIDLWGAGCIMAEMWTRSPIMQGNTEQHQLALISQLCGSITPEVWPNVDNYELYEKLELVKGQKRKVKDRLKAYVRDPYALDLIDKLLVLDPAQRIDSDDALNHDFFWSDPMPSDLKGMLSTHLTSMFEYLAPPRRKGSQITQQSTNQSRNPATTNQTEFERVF

[3] = biological target: Cyclin-dependent kinase 2 (Homo sapiens, UniProt P24941); assay: Inhibition of Cdk2/cyclinA

Cell division cycle 7-related protein kinase, sequence (O00311 whole entry): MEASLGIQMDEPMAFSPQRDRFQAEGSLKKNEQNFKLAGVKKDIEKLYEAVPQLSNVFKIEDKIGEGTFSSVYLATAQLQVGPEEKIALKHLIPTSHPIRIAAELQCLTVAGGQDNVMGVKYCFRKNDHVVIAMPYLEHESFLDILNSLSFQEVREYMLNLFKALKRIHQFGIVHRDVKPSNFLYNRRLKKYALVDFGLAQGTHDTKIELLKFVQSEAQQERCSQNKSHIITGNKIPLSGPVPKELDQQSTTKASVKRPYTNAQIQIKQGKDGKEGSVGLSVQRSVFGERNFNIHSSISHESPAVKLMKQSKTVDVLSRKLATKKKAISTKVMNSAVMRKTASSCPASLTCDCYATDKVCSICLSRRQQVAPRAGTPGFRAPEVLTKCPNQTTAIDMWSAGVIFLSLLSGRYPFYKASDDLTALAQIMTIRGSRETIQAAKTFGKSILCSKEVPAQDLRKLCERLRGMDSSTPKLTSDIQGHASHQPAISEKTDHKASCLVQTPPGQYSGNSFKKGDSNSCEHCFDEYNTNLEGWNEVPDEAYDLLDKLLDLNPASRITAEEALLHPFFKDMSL

IC50 [1] | SMILES | further results
18 nM | O=C1NC(NCc2cccs2)=N/C1=C\c1c[nH]c2ncccc12 | 
21 nM | C[C@H](NC1=N/C(=C\c2c[nH]c3ncccc23)C(=O)N1)c1ccccc1 | IC50 (A2780): 380 nM
4 nM | O=C1N=C(NCc2ccco2)S/C1=C\c1c[nH]c2ncccc12 | IC50 (A2780): 1200 nM
24 nM | CC(C)(C)CCNC1=N/C(=C\c2c[nH]c3ncccc23)C(=O)N1 | 
37 nM | O=C1NC(NCCO)=N/C1=C\c1c[nH]c2ncccc12 | 
9 nM | O=C1N=C(NCc2ccccc2)S/C1=C\c1c[nH]c2ncccc12 | IC50 [2]: < 50 nM; IC50 (CDK9/cyclin T1): 15 nM; IC50 (A2780): 320 nM; IC50 [3]: < 50 nM
10 nM | CC(C)NC1=NC(=O)/C(=C/c2c[nH]c3ncccc23)S1 | IC50 (A2780): 1000 nM
> 10000 nM | C/C(=C1/N=C(NCc2ccccc2)NC1=O)c1c[nH]c2ncccc12 | 
> 10000 nM | O=C1NC(NCc2ccccc2)=N/C1=C/c1c[nH]c2ncc([N+](=O)[O-])cc12 | 
47 nM | Cc1ccc(C2=N/C(=C\c3c[nH]c4ncccc34)C(=O)N2)cc1 | 
25 nM | O=C1NC(N2CCCCC2)=N/C1=C\c1c[nH]c2ncccc12 | 
47 nM | O=C1NC(N2CCOCC2)=N/C1=C\c1c[nH]c2ncccc12 | 
105 nM | CC1CCN(C2=N/C(=C\c3c[nH]c4ncccc34)C(=O)N2)CC1 | 
> 10000 nM | O=C1NC(c2ccccc2)=N/C1=C\c1c[nH]c2ccccc12 | 
162 nM | Cc1ccc(CNC2=N/C(=C\c3c[nH]c4ncccc34)C(=O)N2)cc1 | 
86 nM | O=C1NC(NCc2ccc(Cl)cc2)=N/C1=C\c1c[nH]c2ncccc12 | 
64 nM | O=C1NC(NCC2CCCCC2)=N/C1=C\c1c[nH]c2ncccc12 | 
128 nM | O=C1NC(NCC23CC4CC(CC(C4)C2)C3)=N/C1=C\c1c[nH]c2ncccc12 | 
45 nM | CCNC1=N/C(=C\c2c[nH]c3ncccc23)C(=O)N1 | 
13 nM | CC(C)NC1=N/C(=C\c2c[nH]c3ncccc23)C(=O)N1 | IC50 (A2780): 8800 nM
 | O=C1NC(SCc2ccccc2)=N/C1=C\c1c[nH]c2ncccc12 | IC50 (CDK9/cyclin T1): 6100 nM

IC50 [1] | SMILES | further results
130 nM | O=C1NC(NCc2ccccc2)=N/C1=C\c1c[nH]c2ncc([N+](=O)[O-])cc12 | 
238 nM | Nc1cnc2[nH]cc(/C=C3\N=C(NCc4ccccc4)NC3=O)c2c1 | 
21 nM | O=C1NC(NC2CCCCC2)=N/C1=C\c1c[nH]c2ncccc12 | 
55 nM | O=C1NC(NCc2cccc(Br)c2)=N/C1=C\c1c[nH]c2ncccc12 | 
127 nM | O=C1NC(NCc2ccc(Br)cc2)=N/C1=C\c1c[nH]c2ncccc12 | 
21 nM | O=C1NC(NCC2CCCO2)=N/C1=C\c1c[nH]c2ncccc12 (stereo not given) | 
13 nM | CC1CCC(NC2=N/C(=C\c3c[nH]c4ncccc34)C(=O)N2)CC1 (stereo not given) | 
207 nM | CC(C)(C)C1CCC(NC2=N/C(=C\c3c[nH]c4ncccc34)C(=O)N2)CC1 (stereo not given) | 
50 nM | Cc1cccc(CNC2=N/C(=C\c3c[nH]c4ncccc34)C(=O)N2)c1 | 
247 nM | CCCCCCCNC1=N/C(=C\c2c[nH]c3ncccc23)C(=O)N1 | 
26 nM | C[C@H](NC1=NC(=O)/C(=C/c2c[nH]c3ncccc23)S1)c1ccccc1 | IC50 (A2780): 42 nM
66 nM | CC1CN(C2=N/C(=C\c3c[nH]c4ncccc34)C(=O)N2)CCO1 (stereo not given) | 
30 nM | Cc1cccc(C2=N/C(=C\c3c[nH]c4ncccc34)C(=O)N2)c1 | 
35 nM | CCCCCNC1=N/C(=C\c2c[nH]c3ncccc23)C(=O)N1 | 
50 nM | O=C1NC(c2ccccc2)=N/C1=C\c1c[nH]c2ncccc12 | 
33 nM | O=C1NC(NC2CC2)=N/C1=C\c1c[nH]c2ncccc12 | 
20 nM | O=C1NC(NCc2ccccc2)=N/C1=C\c1c[nH]c2ncccc12 | IC50 (CDK9/cyclin T1): 95 nM; IC50 (A2780): 1200 nM
116 nM | CC(=O)Nc1cnc2[nH]cc(/C=C3\N=C(NCc4ccccc4)NC3=O)c2c1 | 
15 nM | O=C1NC(NCc2ccco2)=N/C1=C\c1c[nH]c2ncccc12 | IC50 (A2780): 4000 nM
39 nM | O=C1NC(NCc2cccc(Cl)c2)=N/C1=C\c1c[nH]c2ncccc12 | 
18 nM | O=C1NC(NCCc2ccccc2)=N/C1=C\c1c[nH]c2ncccc12 | 

SMILES | IC50 [1] | further results
O=C1NC(c2cccnc2)=N/C1=C\c1c[nH]c2ncccc12 | 60 nM | 

Source: ChEMBL document CHEMBL1137791, “Cell division cycle 7 kinase inhibitors: 1H-pyrrolo[2,3-b]pyridines, synthesis and structure-activity relationships” (J Med Chem, 2009)
